From ChEMBL document CHEMBL1201862, “PubChem BioAssay data set” (2004)
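Growth conditions: 96-well plates. Treatment: test compound, 48 hours, 5 concentrations. Analysis: linear interpolation between bracketing concentrations; unreached endpoints set to highest concentration. GI50 is the concentration that inhibits growth by half.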 The source made the active and inactive calls. No stated cut-off is given here; in the data, active = GI50 up to about 1.1 µM and inactive = higher.

Experiments:
Assay in all cases: NCI-60 cell line screen, 48 h
T47D = tested on: T47D
SR = tested on: SR
K562 = tested on: K562
UACC-62 = tested on: UACC-62
ACHN = tested on: ACHN
SF-268 = tested on: SF-268
NCI-H226 = tested on: NCI-H226
DU-145 = tested on: DU-145
OVCAR-4 = tested on: OVCAR-4
OVCAR-3 = tested on: OVCAR-3
PC-3 = tested on: PC-3
UACC-257 = tested on: UACC-257
EKVX = tested on: EKVX
Hs-578T = tested on: Hs-578T
SW-620 = tested on: SW-620
SK-MEL-2 = tested on: SK-MEL-2
786-0 = tested on: 786-0
NCI-H522 = tested on: NCI-H522

Measured: GI50

c1ccc2c(c1)c1c(n2CCOCCN2CCCC2)CCCC1
inactive: T47D 28.7 µM | SR 17.2 µM | K562 15 µM | UACC-62 18.6 µM | ACHN 20.1 µM | SF-268 29 µM | NCI-H226 22.4 µM | DU-145 30.3 µM | OVCAR-4 16.8 µM | OVCAR-3 25.4 µM | PC-3 18.6 µM | UACC-257 22.4 µM | EKVX 25.9 µM | Hs-578T 14.9 µM | SW-620 16.2 µM | SK-MEL-2 16.4 µM | 786-0 16.1 µM

CC1(C)O[C@@H](CO)[C@H]([C@@]23OC[C@H]4OC(C)(C)OC4[C@@H]2OC(C)(C)O3)O1 (stereo not given in full)
inactive: T47D > 100 µM | SR > 100 µM | K562 > 100 µM | ACHN > 100 µM | NCI-H522 > 100 µM | SF-268 > 100 µM | NCI-H226 > 100 µM | DU-145 > 100 µM | OVCAR-4 > 100 µM | OVCAR-3 > 100 µM | PC-3 > 100 µM | EKVX > 100 µM | Hs-578T > 100 µM | SW-620 > 100 µM | SK-MEL-2 > 100 µM | 786-0 > 100 µM

N#C/C(=C/c1cccc(Oc2ccccc2)c1)c1ccccc1
inactive: SR > 100 µM | K562 36.7 µM | UACC-62 > 100 µM | ACHN > 100 µM | NCI-H522 > 100 µM | SF-268 > 100 µM | NCI-H226 > 100 µM | OVCAR-4 > 100 µM | UACC-257 > 100 µM | EKVX > 100 µM | SW-620 > 100 µM | SK-MEL-2 66.5 µM | 786-0 > 100 µM

Cn1nc2n(c1=O)CCCN2
inactive: SR > 100 µM | K562 > 100 µM | ACHN > 100 µM | NCI-H522 > 100 µM | SF-268 > 100 µM | NCI-H226 > 100 µM | DU-145 > 100 µM | OVCAR-4 > 100 µM | OVCAR-3 > 100 µM | PC-3 > 100 µM | UACC-257 > 100 µM | EKVX > 100 µM | Hs-578T > 100 µM | SW-620 > 100 µM | 786-0 > 100 µM

c1ccc(/N=c2/sc3ccccc3s/c2=N/c2ccccc2)cc1
inactive: T47D 1.65 µM | SR 3.35 µM | K562 3.78 µM | UACC-62 1.36 µM | ACHN 1.66 µM | NCI-H522 1.56 µM | SF-268 3.12 µM | NCI-H226 2.88 µM | DU-145 5.02 µM | OVCAR-4 2.02 µM | PC-3 12.8 µM | UACC-257 3.72 µM | EKVX 2.76 µM | Hs-578T 2.68 µM | SW-620 1.72 µM | SK-MEL-2 1.86 µM | 786-0 1.74 µM

C=CCC1([C@H](C)[C@@H](OC(C)=O)c2cc(OC)c(OC)c(OC)c2)C[C@@H](OC)CCC1=O (stereo not given in full)
inactive: SR 22.3 µM | K562 16.4 µM | UACC-62 16.1 µM | ACHN 19.8 µM | NCI-H522 11.1 µM | SF-268 13.7 µM | NCI-H226 22.5 µM | OVCAR-4 25.5 µM | OVCAR-3 20.7 µM | UACC-257 > 10 µM | EKVX 26.2 µM | SW-620 13.7 µM | SK-MEL-2 15.3 µM | 786-0 11.7 µM

Cc1ccc2n(c1)cc(-c1ccc(/C=N/NC(=N)N/N=C/c3ccc(-c4cn5cc(C)ccc5[n+]4C)cc3)cc1)[n+]2C
inactive: T47D > 100 µM | SR > 100 µM | K562 > 10 µM | ACHN 40.2 µM | NCI-H522 > 100 µM | SF-268 21.4 µM | OVCAR-4 26.9 µM | PC-3 > 100 µM | UACC-257 50.6 µM | EKVX > 100 µM | Hs-578T 74.3 µM | SW-620 > 100 µM | 786-0 36.3 µM
